Some test systems named below: DU-145 prostate; HCC-2998 colon; KM12 colon; MDA-MB-231 breast; NCI-H226 lung; NCI-H23 lung; OVCAR-4 ovarian; OVCAR-8 ovarian; SR leukemia; U251 CNS.
Test in all cases: inhibition of tumour cell growth, NCI panel, 48 h

This passage reports GI50 and TGI results from PubChem BioAssay (NCI).

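Tested at 5 concentrations; 48 h exposure; 96-well plates; endpoints linearly interpolated, else capped at highest concentration. GI50 marks 50% less growth. TGI denotes the concentration required for complete inhibition of growth.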 Some results are limits rather than exact numbers.

`COc1cccc(-c2nn(C)c3sc(C(=O)NCCN4CCN(c5ccccc5F)CC4)cc23)c1`: the GI50 was 34.2 µM in the test with DU-145 prostate; 7.06 µM in the test with HCC-2998 colon; 10.1 µM in the test on KM12 colon; 3.87 µM with MDA-MB-231 breast; 31.3 µM with NCI-H226 lung; 34.5 µM with NCI-H23 lung. Moreover, the GI50 with OVCAR-4 ovarian is 19.1 µM; in the test with OVCAR-8 ovarian it was 7.85 µM; in the test on SR leukemia, 5.43 µM; in the test with U251 CNS, 7.14 µM. For the same molecule, the TGI in the test with DU-145 prostate was > 100 µM; in the test on HCC-2998 colon, > 100 µM; in the test with KM12 colon it was > 100 µM; in the test on MDA-MB-231 breast it was 62.4 µM; with NCI-H226 lung it was > 100 µM; with NCI-H23 lung, > 100 µM. Besides, the TGI with OVCAR-4 ovarian is > 100 µM; with OVCAR-8 ovarian, > 100 µM; with SR leukemia, > 100 µM; in the test with U251 CNS it was 59.5 µM.

Turning to `C/C(=N\O)c1ccc(Nc2cc(-c3ccccc3)nc3c(O)cccc23)cc1`, the GI50 in the test with DU-145 prostate is 13.5 µM; in the test with HCC-2998 colon, 10.6 µM; with KM12 colon, 4.06 µM; with MDA-MB-231 breast, 2.46 µM; with NCI-H226 lung, 14.7 µM; in the test with NCI-H23 lung, 17 µM. For the same molecule, the GI50 in the test on OVCAR-4 ovarian is 25.4 µM; in the test on OVCAR-8 ovarian, 6.99 µM; in the test with SR leukemia, 1.27 µM; with U251 CNS, 11.8 µM. The TGI was found to be 28.5 µM in the test with DU-145 prostate; 23.4 µM in the test on HCC-2998 colon; 21.4 µM with KM12 colon; 11.8 µM in the test with MDA-MB-231 breast; 31.8 µM in the test with NCI-H226 lung; 49.5 µM with NCI-H23 lung. Further, the TGI worked out at 73.2 µM in the test on OVCAR-4 ovarian, 29.2 µM in the test with OVCAR-8 ovarian, 24.1 µM in the test with SR leukemia and 38.6 µM in the test with U251 CNS.

Take `COc1ccc(-c2nn(C(=O)c3cc(OC)c(OC)c(OC)c3)c3cc(N)ccc23)cc1`: the GI50 is < 0.013 µM in the test on DU-145 prostate; 0.0349 µM with HCC-2998 colon; < 0.01 µM with KM12 colon; 0.0133 µM in the test with MDA-MB-231 breast; 0.15 µM in the test on NCI-H226 lung; 0.0292 µM in the test with NCI-H23 lung. Besides, the GI50 is < 0.0195 µM with OVCAR-4 ovarian, < 0.0156 µM with OVCAR-8 ovarian, < 0.01 µM with SR leukemia and < 0.01 µM in the test on U251 CNS. Also, the TGI was found to be 0.345 µM in the test with DU-145 prostate; 3.79 µM in the test on HCC-2998 colon; 1.83 µM in the test with KM12 colon; 12.9 µM in the test on MDA-MB-231 breast; 6.71 µM in the test on NCI-H226 lung; 15.7 µM in the test on NCI-H23 lung. For the same molecule, the TGI came out at 12.9 µM with OVCAR-4 ovarian, 7.28 µM with OVCAR-8 ovarian and 1.87 µM in the test with U251 CNS.

For `O=P1(NCCCl)OCCC(OO)N1CCCl` (stereo not drawn), the TGI in the test on DU-145 prostate was > 100 µM; in the test on HCC-2998 colon, > 100 µM; in the test on KM12 colon, > 100 µM; in the test with MDA-MB-231 breast, > 100 µM; in the test on NCI-H226 lung it was > 100 µM; in the test with NCI-H23 lung, > 84.8 µM. The TGI is 39.1 µM in the test on OVCAR-4 ovarian, > 100 µM in the test with OVCAR-8 ovarian, > 100 µM in the test on SR leukemia and > 100 µM in the test on U251 CNS.

On to `COc1cc(Cl)c(C)cc1NC(=O)c1cc2ccccc2cc1O`, for which the GI50 with DU-145 prostate is 3.4 µM; with HCC-2998 colon, 3.31 µM; in the test with KM12 colon, 2.6 µM; in the test on MDA-MB-231 breast it was 1.19 µM; with NCI-H226 lung it was 1.94 µM; in the test with NCI-H23 lung, 1.97 µM. For the same molecule, the GI50 with OVCAR-4 ovarian is 3.28 µM; in the test on OVCAR-8 ovarian, 2.7 µM; with SR leukemia, 2.79 µM; in the test on U251 CNS, 2.2 µM. Moreover, the TGI in the test on DU-145 prostate is 14.4 µM; with HCC-2998 colon, 12.8 µM; with KM12 colon, 8.15 µM; with MDA-MB-231 breast, 2.72 µM; with NCI-H226 lung, 6.28 µM; in the test with NCI-H23 lung, 8.19 µM. The TGI with OVCAR-4 ovarian came out at 18.5 µM; with OVCAR-8 ovarian, 10.4 µM; in the test with SR leukemia it was 11.9 µM; in the test on U251 CNS, 10.5 µM.

Consider `O=C1/C=C/[C@@H](O)[C@@H]2C[C@@H](O)C[C@H]2/C=C/CCCCO1`, for which the GI50 in the test on DU-145 prostate was 0.857 µM; with HCC-2998 colon, 0.32 µM; in the test on KM12 colon, 0.225 µM; in the test with MDA-MB-231 breast, 0.298 µM; in the test with NCI-H226 lung it was 0.224 µM; in the test on NCI-H23 lung, 0.488 µM. Moreover, the GI50 is 0.47 µM in the test on OVCAR-4 ovarian, 0.516 µM in the test with OVCAR-8 ovarian, 8.61 µM with SR leukemia and 0.408 µM with U251 CNS. Moreover, the TGI in the test with DU-145 prostate was > 100 µM; with HCC-2998 colon, 1.76 µM; in the test on KM12 colon it was 0.553 µM; in the test on MDA-MB-231 breast it was 1.31 µM; in the test with NCI-H23 lung, 63.1 µM; in the test on OVCAR-4 ovarian it was > 100 µM. Also, the TGI in the test with OVCAR-8 ovarian, with SR leukemia and in the test with U251 CNS was > 100 µM throughout.

Take `NC1=C(O)/C(=N/NS(=O)(=O)c2ccccc2)C(c2cccc(Cl)c2)O1` (stereo not drawn): the TGI is > 100 µM with DU-145 prostate; > 100 µM in the test with HCC-2998 colon; > 100 µM in the test on KM12 colon; 37.6 µM in the test on MDA-MB-231 breast; > 90.9 µM with NCI-H226 lung; 73.5 µM with NCI-H23 lung. For the same molecule, the TGI in the test with OVCAR-4 ovarian is > 100 µM; with OVCAR-8 ovarian, > 67.8 µM; in the test with SR leukemia it was 9.15 µM; in the test on U251 CNS, 55.7 µM.

Regarding `CC/C(=C(/c1ccc(Cl)cc1)c1ccc(OCCCN(C)C)cc1)c1ccc(OC)cc1`, the GI50 with DU-145 prostate is 3.48 µM; with HCC-2998 colon, 8.74 µM; in the test with KM12 colon, 2.55 µM; in the test with MDA-MB-231 breast, 1.3 µM; with NCI-H226 lung, 7.7 µM; in the test with NCI-H23 lung it was 7.43 µM. In addition, the GI50 is 5.25 µM in the test on OVCAR-4 ovarian, 8.05 µM in the test with OVCAR-8 ovarian, 0.983 µM with SR leukemia and 1.66 µM in the test with U251 CNS. For the same molecule, the TGI with DU-145 prostate was determined as 10.1 µM; in the test with HCC-2998 colon it was 17.4 µM; in the test on KM12 colon it was 10.1 µM; in the test on MDA-MB-231 breast it was 3.29 µM; in the test with NCI-H226 lung, 18.3 µM; with NCI-H23 lung, 15.1 µM. In addition, the TGI in the test on OVCAR-4 ovarian is 11.5 µM; in the test with OVCAR-8 ovarian it was 17.6 µM; with SR leukemia, 2.27 µM; in the test with U251 CNS, 5.4 µM.
